Laboratory results as given in paper PMC9601806, “Calcium Binding Mechanism of Soybean Peptide with Histidine Alteration by Molecular Docking Analysis and Spectroscopic Methods” (Foods, 2022).
Residues, ends and D or L forms follow the SMILES beside them.

Columns and labels:
[1] = Simulated gastrointestinal digestion and Caco-2 absorption, LC-MS/MS identification; type: in vitro ADME; conditions: pepsin pH 2, 37 °C, 90 min, then trypsin and bile salts pH 7.5, Caco-2 absorption 0.1 mg/mL, 2 h
Description: The simulation of gastrointestinal digestion was carried out following the method described before with some modifications. The gastric set was reproduced by the suspension of porcine pepsin (40 mg) into 1 mL 0.1N HCl. The intestinal stage was stimulated by adding bile salts (40 mg) and trypsin (10 mg) into 5 mL of 0.1 mol/L NaHCO3. Gastric digestion was performed by incubating the CBP–calcium complex or CaCl2 (prepared with equal Ca^2+ concentration, pH = 2) at a pepsin/substrate ratio of 1:100 (w/w) in a water bath shaker (37 °C, 90 min). […], the […] at 1:25 (w/w) of substrates was added, following by adjusting the pH to 7.5. After that, samples were removed after deactivating trypsin by thermal denaturation for 5 min. Then, the obtained samples were lyophilized and stored at −20 °C for the sake of subsequent studies.
The human intestinal Caco-2 cell line has been extensively used as an intestinal barrier model. These cells were cultured in high-glucose Dulbecco’s Eagle’s medium (DMEM), which contained 10% fetal bovine serum (FBS), 100 μg mL^−1 streptomycin, and 100 U mL^−1 penicillin, and were incubated at 37 °C in a humidified 5% CO2 incubator. Transepithelial transport through the Caco-2 single cell layer was performed in accordance with Wang et al.’s method. […]

[2] = cited from earlier work
Description: To clarify the calcium-binding capacity of CBP-H, Nanjing Peptide Biotechnology Corporation. Ltd. (Nanjing, China) synthesized the peptide CBP-H using a solid-phase procedure. High performance liquid chromatography (HPLC) analysis was performed to determine the purity (98%) of CBP-H (Figure S1A), and ESI mass spectrometry was used to confirm the peptide structure. […] In addition, the CBP-H–Ca complex was prepared, followed by ICP-AES to detect the calcium-binding capacity. […] Spectroscopic methods were used to analyze the binding mode and binding sites including ITC, UV, FTIR, and XRD. Isothermal titration calorimetry was always used to measure reversible reactions between bio-molecules. This methodology provided the affinity constant, stoichiometry, enthalpy, and entropy of the biomolecular interactions.

In the case of CC[C@H](C)[C@H](NC(=O)[C@H](CCC(N)=O)NC(=O)[C@H](CCC(=O)O)NC(=O)[C@H](CC(=O)O)NC(=O)[C@H](CCC(=O)O)NC(=O)[C@@H](N)CC(=O)O)C(=O)N1CCC[C@H]1C(=O)N[C@@H](CO)C(=O)N[C@@H](Cc1c[nH]cn1)C(=O)N1CCC[C@H]1C(=O)N1CCC[C@H]1C(=O)N[C@@H](CCCNC(=N)N)C(=O)O [CBP, Asp-Glu-Asp-Glu-Gln-IIe-Pro-Ser-His-Pro-Pro-Arg] (H-DEDEQIPSHPPR-OH), the “stability after simulated gastrointestinal digestion” value [1] is reported as “partially stable”.
With CC[C@H](C)[C@H](NC(=O)[C@H](CCC(N)=O)NC(=O)[C@H](CCC(=O)O)NC(=O)[C@H](CC(=O)O)NC(=O)[C@H](CCC(=O)O)NC(=O)[C@@H](N)CC(=O)O)C(=O)N1CCC[C@H]1C(=O)N[C@@H](CO)C(=O)N[C@@H](CC(C)C)C(=O)N1CCC[C@H]1C(=O)N1CCC[C@H]1C(=O)N[C@@H](CCCNC(=N)N)C(=O)O [CBP-H, Asp-Glu-Asp-Glu-Gln-IIe-Pro-Ser-Leu-Pro-Pro-Arg] (H-DEDEQIPSLPPR-OH) the “stability after simulated gastrointestinal digestion” value [1] was “partially stable”.
In the case of “GPAGPHGPVG [tilapia bone collagen peptide, literature comparison]”, the calcium-binding capacity ([2]; tilapia bone collagen peptide) is given as 18.80 ± 0.49 mg/g.
For Thr-Cys-His, the calcium binding capacity ([2]; peptide from shrimp protein hydrolysates) is listed as 2.7 mmol/g.
